Test results from patent publication US9220705B2, “Method of treating colorectal cancer” (priority 2013, dated 2015).

Legend:
Assay in all cases: MTT cytotoxicity assay, 72 h
Assay type in all cases: cell-based, human
SW480 = settings: SW480, colon
Description: (§1) Human breast (MCF-7) and colon (HCT-15, DDL1, SW480 and CaCo-2) carcinoma cell lines along with melanoma (A375) were obtained from the American Type Culture Collection (ATCC, Rockville, Md.). A431 are human cervical carcinoma cells kindly provided by Prof. F. Zunino (Molecular Pharmacology Unit, Experimental Oncology and Molecular Medicine, Istituto Nazionale dei Tumori, Milan, Italy). […] G. Marverti (Dept. of Biomedical Science, University of Modena, Italy). LoVo human colon-carcinoma cell line and its multidrug-resistant sublime (LoVo MDR) were kindly provided by Prof F. Maj one (Department of Biology of Padova University, Italy). […] Cell lines were maintained in the logarithmic phase at 37° C. in a 5% carbon dioxide atmosphere using the following culture media containing 10% fetal calf serum (Euroclone, Milan, Italy), antibiotics (50 units mL^−1 penicillin and 50 μg mL^−1 streptomycin), and 2 mM L-glutamine in: i) RPMI-1640 medium (Euroclone) for MCF-7, HCT-15, A431, DLD 1, 2008, and C13* cells; ii) F-12 HAM'S (Sigma Chemical Co.) for LoVo, LoVo MDR, and LoVo-OXP cells; iii) DMEM for A375 and SW 480 cells; and iv) MEM for CaCo-2 cells.
(§2) The growth inhibitory effect towards tumor cell lines was evaluated by means of the MTT (3-(4,5-dimethylthiazol-2-yl)-2,5-diphenyltetrazolium bromide) assay (Alley, M. C., et al., Cancer Res. 1988, 48, 589-601).
(§3) Briefly, depending upon the growth characteristics of the cell line, 3-8×10^3 cells well^−1, were seeded in 96-well microplates in growth medium (100 μL) and then incubated at 37° C. in a 5% carbon dioxide atmosphere. After 24 h, the medium was removed and replaced with a fresh one containing the compound to be studied, at the appropriate concentration, dissolved in 0.9% sodium chloride solution just before use. Triplicate cultures were established for each treatment. After 72 h, each well was treated with […] of a 5 mg mL^−1 MTT saline solution and, after 5 h of incubation, 100 μL of a sodium dodecylsulfate (SDS) solution in 0.01 M HCl were added. After an overnight incubation, the inhibition of cell growth induced by the tested complexes was determined by measuring the absorbance of each well at 570 nm using a BioRad 680 microplate reader. Mean absorbance for each drug dose was expressed as percentage of the control and plotted vs. drug concentration. Dose-response curves were fitted and IC50 values were calculated with four parameter logistic model (4PL).
(§4) Compound 1 was prepared for the first time almost twenty years ago however, until now, it had been tested (both in vitro and in vivo) only in a limited number of tumor cell lines (Hoeschele, J. D., et al., J. Med. Chem. 1994, 37, 2630-2636 and Shamsuddin, S., et al., J. Inorg. Biochem. 1996, 61, 291-301). The Pt(II) and Pt(IV) complexes containing isomeric forms of diaminocyclohexane, [PtCl2(cis-1,4-DACHA](1), [PtCl2(1R,2R-DACH)] (2), [Pt(OXA)(cis-1,4-DACH)] (3), cis,trans,cis-[Pt^IVCl2(OH)2(cis-1,4-DACH)] (4), cis,trans,cis-[Pt^IVCl2(DCA)2(cis-1,4-DACH)] (5), [Pt(CBDCA)(cis-1,4-DACH)] (6), cis,trans,cis-[Pt^IV(OXA)(OH)2(cis-1,4-DACH)] (7), and cis,trans,cis-[Pt^IV(OXA)(DCA)2(cis-1,4-DACH)] (8) were evaluated for their cytotoxic activity towards a panel of human tumor cell lines including cervical (A431), breast (MCF-7), cancers along with a melanoma (A375) and 4 different colon cancer cell lines corresponding to different stages of the disease progression (HCT-15, SW480, CaCo-2, DLD-1). The cytotoxicity was evaluated by means of the MTT test for 72 h treatment with increasing concentrations of the tested compounds.

MCF-7 = settings: MCF-7, breast
Description: as §1, §2, §3, §4

DLD-1 = settings: DLD-1, colon
Description: as §1, §2, §3, §4

A375 = settings: A375, skin
Description: as §1, §2, §3, §4

HCT-15 = settings: HCT-15, colon
Description: as §1, §2, §3, §4

A431 = settings: A431, cervix
Description: as §1, §2, §3, §4

With O=C1[O][Pt-2]2([NH2+]C3CCCC[C@H]3[NH2+]2)[O]C1=O (stereo partly drawn) [oxaliplatin, [(1R,2R)-cyclohexane-1,2diamine](ethanedioato)platinum(II), reference compound] the IC50 (SW480) was 4.2 ± 0.75 µM, the IC50 (MCF-7) was 3.36 ± 1.69 µM and the IC50 (DLD-1) was 5.81 ± 1.93 µM. The IC50 (A375) was 2.37 ± 1.31 µM, the IC50 (HCT-15) was 1.25 ± 1.05 µM and the IC50 (A431) was 3.69 ± 1.03 µM.
